This is an account of results in patent US20250346585A1 (Alexion Pharmaceuticals, Inc., priority 2022, published 2025).

Human complement C1s enzyme, sequence (P09871 438-688 limits assumed): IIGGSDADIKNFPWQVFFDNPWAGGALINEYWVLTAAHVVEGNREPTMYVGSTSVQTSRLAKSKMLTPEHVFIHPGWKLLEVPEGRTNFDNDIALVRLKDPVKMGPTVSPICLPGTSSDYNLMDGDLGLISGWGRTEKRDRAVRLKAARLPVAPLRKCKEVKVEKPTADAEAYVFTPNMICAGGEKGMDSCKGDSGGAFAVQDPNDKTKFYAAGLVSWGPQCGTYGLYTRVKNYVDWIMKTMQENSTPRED
Human complement C1s enzyme, sequence (P09871 16-437 partner limits assumed): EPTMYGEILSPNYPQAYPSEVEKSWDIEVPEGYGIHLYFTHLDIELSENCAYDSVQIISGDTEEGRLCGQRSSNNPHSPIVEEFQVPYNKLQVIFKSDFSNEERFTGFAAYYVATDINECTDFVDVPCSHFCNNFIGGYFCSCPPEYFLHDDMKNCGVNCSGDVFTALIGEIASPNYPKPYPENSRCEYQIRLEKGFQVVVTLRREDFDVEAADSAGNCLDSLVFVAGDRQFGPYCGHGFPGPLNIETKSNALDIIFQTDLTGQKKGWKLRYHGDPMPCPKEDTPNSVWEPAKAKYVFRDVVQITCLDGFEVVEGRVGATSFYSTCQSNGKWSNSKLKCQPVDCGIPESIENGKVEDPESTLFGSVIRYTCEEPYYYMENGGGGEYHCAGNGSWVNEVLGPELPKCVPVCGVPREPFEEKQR

For this test, the target named is Human complement C1s enzyme (Homo sapiens (Human), UniProt P09871). Nature of the test: Human C1s enzyme assay. It is filed as biochemical. Conditions: Human C1s enzyme assay of Example 3; read-out: IC50 (Stars). Put shortly:
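IC50 derived by nonlinear regression of rate versus concentration, with rate taken from A405 kinetics (30 s intervals, 30 min) after adding 100 μM each Z-L-Lys-SBzl and DTNB. C1s from human serum, 1.16 nM, exposed to compound for 5 min at RT beforehand; buffer 50 mM Tris, 1 M NaCl, pH 7.5.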
By IC50 is commonly meant the midpoint of a concentration-inhibition curve. Take `C[C@@H](NC(=O)[C@@H]1C[C@@H](OC(F)F)CN1C(=O)CNC(=O)c1ccc(C(F)(F)c2ccccc2)cc1)c1cc(C(=N)N)cs1` [Compound 131, (2S,4R)—N—((R)-1-(4-carbamimidoylthiophen-2-yl)ethyl)-1-((4-(difluoro(phenyl)methyl)benzoyl)glycyl)-4-(difluoromethoxy)pyrrolidine-2-carboxamide]: the IC50 was below 100 nM.
For the compound `C[C@@H](NC(=O)[C@@H]1C[C@@H](OC(F)F)CN1C(=O)CNC(=O)c1ccc2c(c1)-c1ccccc1C2(C)C)c1cc(C(=N)N)cs1` [Compound 132, (2S,4R)—N—((R)-1-(4-carbamimidoylthiophen-2-yl)ethyl)-4-(difluoromethoxy)-1-((9,9-dimethyl-9H-fluorene-3-carbonyl)glycyl)pyrrolidine-2-carboxamide], the IC50 is below 100 nM.
With `C[C@@H](NC(=O)[C@@H]1C[C@](F)(COCCNC(=O)CC[C@H](NC(=O)CCCCCCCCCCCCCCCCC(=O)O)C(=O)O)CN1C(=O)CNC(=O)c1ccc2c(c1)-c1ccccc1C2(F)F)c1cc(C(=N)N)cs1` [Compound 133, 18-(((S)-4-((2-(((3R,5S)-5-(((R)-1-(4-carbamimidoylthiophen-2-yl)ethyl)carbamoyl)-1-((9,9-difluoro-9H-fluorene-3-carbonyl)glycyl)-3-fluoropyrrolidin-3-yl)methoxy)ethyl)amino)-1-carboxy-4-oxobutyl)amino)-18-oxooctadecanoic acid] the figure was below 100 nM.
With `CC(C)OC(=O)/N=C(/N)c1csc([C@@H](C)NC(=O)[C@@H]2CC3(CN2C(=O)CNC(=O)c2ccc4c(c2)-c2ccccc2C4(F)F)OCCO3)c1` [Compound 134, isopropyl ((E)-amino(5-((R)-1-((S)-7-((9,9-difluoro-9H-fluorene-3-carbonyl)glycyl)-1,4-dioxa-7-azaspiro[4.4]nonane-8-carboxamido)ethyl)thiophen-3-yl)methylene)carbamate] the figure was below 100 nM; with `C[C@@H](NC(=O)[C@@H]1CC2(CN1C(=O)CNC(=O)c1ccc3c(c1)-c1ccccc1C3(F)F)OCCO2)c1ccc(-c2ncc[nH]2)s1` [Compound 135, (S)—N—((R)-1-(5-(1H-imidazol-2-yl)thiophen-2-yl)ethyl)-7-((9,9-difluoro-9H-fluorene-3-carbonyl)glycyl)-1,4-dioxa-7-azaspiro[4.4]nonane-8-carboxamide], above 1000 nM; with `COC[C@@]1(F)C[C@@H](C(=O)N[C@H](C)c2cc(C(=N)N)cs2)N(C(=O)CNC(=O)c2ccc(C(F)(F)c3ccccc3)cc2)C1` [Compound 136, (2S,4R)—N—((R)-1-(4-carbamimidoylthiophen-2-yl)ethyl)-1-((4-(difluoro(phenyl)methyl)benzoyl)glycyl)-4-fluoro-4-(methoxymethyl)pyrrolidine-2-carboxamide], below 100 nM.
The figure for `C[C@@H](NC(=O)[C@@H]1CC2(CN1C(=O)CNC(=O)c1ccc3oc4ccccc4c3c1)OCCO2)c1cc(C(=N)N)cs1` [Compound 137, (S)—N—((R)-1-(4-carbamimidoylthiophen-2-yl)ethyl)-7-((dibenzo[b,d]furan-2-carbonyl)glycyl)-1,4-dioxa-7-azaspiro[4.4]nonane-8-carboxamide] is below 100 nM; for `C[C@@H](NC(=O)[C@@H]1CC2(CN1C(=O)CNC(=O)c1ccc3c(c1)C(F)(F)c1ccccc1-3)OCCO2)c1cc(C(=N)N)cs1` [Compound 138, (S)—N—((R)-1-(4-carbamimidoylthiophen-2-yl)ethyl)-7-((9,9-difluoro-9H-fluorene-7-carbonyl)glycyl)-1,4-dioxa-7-azaspiro[4.4]nonane-8-carboxamide] it is below 100 nM; for `COC[C@@]1(F)C[C@@H](C(=O)N[C@H](C)c2cc(C(=N)N)cs2)N(C(=O)CNC(=O)c2ccc3c(c2)-c2ccccc2C3(C)C)C1` [Compound 139, (2S,4R)—N—((R)-1-(4-carbamimidoylthiophen-2-yl)ethyl)-1-((9,9-dimethyl-9H-fluorene-3-carbonyl)glycyl)-4-fluoro-4-(methoxymethyl) pyrrolidine-2-carboxamide] it is below 100 nM.
